Legend:
[1] = Equol productivity of probiotic strains cultured in soybean germ extract (S30); details: inoculated into 30% isoflavone-containing soybean germ extract (S30), 37° C., 48 hours
Description: A probiotic strain having the ability to produce equol from a soybean germ extract (S30) containing 30 wt % of isoflavone was selected.
First, a soybean germ extract was prepared using 40 g/L of a soybean germ extract (S30, prepared by Seorim Bio) containing 30 wt % of isoflavone and sterile water. The pH of the soybean germ extract was adjusted to 6.7 using 5M NaOH. The entire soybean germ extract was sterilized by autoclaving at 121° C. for 15 minutes. Microorganisms were activated in rehydrated MRS (Mann Rogosa Sharpe) broth (De Mann et al. 1960) at 37° C. for 20 hours three times, followed by fourth activation in the sterile soybean germ extract at an inoculum level of 5% (v/v). 40 to 400 mL of the sterile soybean germ extract was inoculated with the active culture (5% v/v), and incubated at 37° C. for 24 hours to hydrolyze isoflavone glycosides. The strain activated in the soybean germ extract was used.
In addition, samples were taken at regular time intervals in a time-dependent manner and measured for β-glucosidase activity. […] The sequence of the above screening steps was determined flexibly. That is, strains producing equol were first screened, and then β-glucosidase activity was measured, or strains having high β-glucosidase activity were first screened, and then whether the strains produced equol was examined. […]

ERβ = ERβ (Homo sapiens, UniProt Q92731); details: background statement; cited from earlier work
estrogen receptor (ER) = details: background statement; cited from earlier work

ERβ, sequence (Q92731 whole entry): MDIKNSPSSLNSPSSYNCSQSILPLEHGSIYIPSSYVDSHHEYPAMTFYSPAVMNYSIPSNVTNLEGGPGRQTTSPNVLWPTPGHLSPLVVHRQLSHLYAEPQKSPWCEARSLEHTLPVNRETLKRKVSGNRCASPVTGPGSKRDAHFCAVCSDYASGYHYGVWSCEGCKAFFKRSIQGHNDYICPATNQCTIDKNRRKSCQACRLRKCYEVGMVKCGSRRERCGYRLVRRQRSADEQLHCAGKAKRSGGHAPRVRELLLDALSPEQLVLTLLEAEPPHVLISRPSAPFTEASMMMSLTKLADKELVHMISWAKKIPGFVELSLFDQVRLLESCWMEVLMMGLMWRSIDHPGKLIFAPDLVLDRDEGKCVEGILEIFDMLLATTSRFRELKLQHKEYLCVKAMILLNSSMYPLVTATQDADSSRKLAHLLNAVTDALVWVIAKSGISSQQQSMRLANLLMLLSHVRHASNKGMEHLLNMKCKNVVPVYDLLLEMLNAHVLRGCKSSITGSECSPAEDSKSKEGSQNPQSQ

Row | Molecule | equol production / equol productivity in culture supernatant [1] | affinity for ERβ (ERβ) | ER binding affinity (estrogen receptor (ER))
1 | Bifidobacterium longum | equol was produced | – | –
2 | Oc1ccc([C@H]2COc3cc(O)ccc3C2)cc1 [Equol] | – | high affinity for ERβ | higher ER binding affinity than daidzein
3 | O=c1c(-c2ccc(O)cc2)coc2cc(O)ccc12 [daidzein] | – | – | exhibits estrogen receptor (ER) binding affinity

Source: patent US11805799B2, “Composition for preventing, relieving or treating climacteric disorders comprising lactic acid bacteria and prebiotics” (CELL BIOTECH CO., LTD., priority 2019, dated 2023)
